Laboratory results taken from patent US20040116420A1 (priority 2001, published 2004).

Tests used:
Vero cells = experiment: Cytotoxicity, Vero cells, Alamar Blue; assay type: cell-based; conditions: 25 μM, 20 hours
How it was run: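 Overnight-seeded Vero cells were exposed to 25 μM compound in 2% FBS-DMEM for 20 h at 37 °C, 5% CO2. Alamar Blue was then added for about 6 h. The absorbance ratio relative to compound-free control gave the living-cell ratio.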

HSV-1 = experiment: Antiviral activity, HSV-1 in Vero cells, plaque method; assay type: cell-based; conditions: Human alphaherpesvirus 1, 20 hours, 90% inhibition of plaque formation
How it was run: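 HSV-1 (50,000 pfu in 2% FBS-DMEM) was added to Vero cells and removed, then the compound was applied in 2% FBS-DMEM for 20 h at 37° C, 5% CO2. After a freeze-thaw, virus yield in the medium was titred by plaque assay. EC90 is the concentration giving 90% plaque reduction versus the compound-free control.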

HSV-1 protease = target: T1, HSV-1 protease (Human herpesvirus 1, UniProt P10210); experiment: Enzymatic assay for HSV-1 protease (assembly) inhibitor, fluorescence polarization; assay type: biochemical; conditions: read-out: HSV-1 Enzyme inhibition IC50
T1 construct: 6xHis (N); made in house; host or cells: baculovirus expression system
How it was run: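 His6-tagged HSV-1 UL26 protease, baculovirus-expressed, preincubated 30 min at RT with compound in 1 M citrate/phosphate buffer pH 7.4 with 20% glycerol and 2 mM TCEP. A biotin-HTYLQA*SERFRIK-DTAF substrate was then cleaved for 60 min at RT, stopped with avidin, and read by fluorescence polarization versus no-inhibitor control.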

T1 sequence (P10210 1-247): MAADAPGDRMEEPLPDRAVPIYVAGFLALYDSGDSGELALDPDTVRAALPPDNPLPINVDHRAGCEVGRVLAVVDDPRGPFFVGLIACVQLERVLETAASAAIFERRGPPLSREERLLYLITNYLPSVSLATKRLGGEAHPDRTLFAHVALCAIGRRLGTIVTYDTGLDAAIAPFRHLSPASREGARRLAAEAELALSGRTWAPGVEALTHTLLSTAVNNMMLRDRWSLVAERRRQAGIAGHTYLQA

| Compound | EC90 (HSV-1) | IC50 (HSV-1 protease) | Cell viability (% of control) (Vero cells) |
| --- | --- | --- | --- |
| Cc1c(NC(=O)c2ccc([N+](=O)[O-])o2)ccc2nc(NC(C)(C)C(=O)N(C)CCc3ccccn3)oc(=O)c12 [Compound No.177, 5-Nitro-furan-2-carboxylic acid (5-methyl-2-{1-methyl-1-[methyl-(2-pyridin-2-yl-ethyl)-carbamoyl]-ethylamino}-4-oxo-4H-benzo[d][1,3]oxazin-6-yl)-amide] | > 12.5 µM | 6 µM | 38.0% |
| Cc1c(NC(=O)C(C)(C)C)ccc2nc(NC(C)(C)C(=O)N(C)CCc3ccccn3)oc(=O)c12 [Compound No.136, 2,2-Dimethyl-N-(5-methyl-2-{1-methyl-1-[methyl-(2-pyridin-2-yl-ethyl)-carbamoyl]-ethylamino}-4-oxo-4H-benzo[d][1,3]oxazin-6-yl)-propionamide] | > 12.5 µM | 4.5 µM | 81.8% |
| Cc1c(NC(=O)OC(C)(C)C)ccc2nc(N3CCCC[C@H]3C(=O)NCc3cccnc3)oc(=O)c12 [Compound No.103, (5-Methyl-4-oxo-2-{2S-[(pyridin-3-ylmethyl)-carbamoyl]-piperidin-1-yl}-4H-benzo[d][1,3]oxazin-6-yl)-carbamic acid tert-butyl ester] | > 12.5 µM | 2.6 µM | 68.9% |
| Cc1c(NC(=O)OC(C)(C)C)ccc2nc(N3CCCC[C@H]3C(=O)N(C)CCc3ccccn3)oc(=O)c12 [Compound No.106, (5-Methyl-2-{2S-[methyl-(2-pyridin-2-yl-ethyl)-carbamoyl]-piperidin-1-yl}-4-oxo-4H-benzo[d][1,3]oxazin-6-yl)-carbamic acid tert-butyl ester] | > 12.5 µM | 7.6 µM | 53.3% |
| Cc1c(NC(=O)OC(C)(C)C)ccc2nc(N3Cc4ccccc4C[C@H]3C(=O)N(C)CCc3cccnc3)oc(=O)c12 [Compound No.100, (5-Methyl-2-{3S-[methyl-(2-pyridin-3-yl-ethyl)-carbamoyl]-3,4-dihydro-1H-isoquinolin-2-yl}-4-oxo-4H-benzo[d][1,3]oxazin-6-yl)-carbamic acid tert-butyl ester] | 11.8 µM | 9.7 µM | 44.1% |
| Cc1c(NC(=O)OC(C)(C)C)ccc2nc(N[C@H](C(=O)N(C)Cc3ccccn3)C(C)C)oc(=O)c12 [Compound No.61, {5-Methyl-2-[2-methyl-1S-(methyl-pyridin-2-ylmethyl-carbamoyl)-propylamino]-4-oxo-4H-benzo[d][1,3]oxazin-6-yl}-carbamic acid tert-butyl ester] | 4.7 µM | 3.3 µM | 107.0% |
| Cc1c(NC(=O)OC(C)(C)C)ccc2nc(N[C@@H](CCc3ccccc3)C(=O)NCc3cccnc3)oc(=O)c12 [Compound No.40, (5-Methyl-4-oxo-2-{3-phenyl-1S-[(pyridin-3-ylmethyl)-carbamoyl]-propylamino}-4H-benzo[d][1,3]oxazin-6-yl)-carbamic acid tert-butyl ester] | > 25 µM | > 20 µM | 100.0% |
| Cc1c(NC(=O)OC(C)(C)C)ccc2nc(N[C@@H](CCc3ccccc3)C(=O)NCc3ccncc3)oc(=O)c12 [Compound No.41, (5-Methyl-4-oxo-2-{3-phenyl-1S-[(pyridin-4-ylmethyl)-carbamoyl]-propylamino}-4H-benzo[d][1,3]oxazin-6-yl)-carbamic acid tert-butyl ester] | > 25 µM | 5.6 µM | 101.0% |
| Cc1c(NC(=O)c2cccc([N+](=O)[O-])c2)ccc2nc(NC(C)(C)C(=O)N(C)CCc3ccccn3)oc(=O)c12 [Compound No.141, N-(5-Methyl-2-{1-methyl-1-[methyl-(2-pyridin-2-yl-ethyl)-carbamoyl]-ethylamino}-4-oxo-4H-benzo[d][1,3]oxazin-6-yl)-3-nitro-benzamide] | > 12.5 µM | 8 µM | 80.4% |
| Cc1c(NC(=O)c2ccccc2)ccc2nc(NC(C)(C)C(=O)N(C)CCc3ccccn3)oc(=O)c12 [Compound No.138, N-(5-Methyl-2-{1-methyl-1-[methyl-(2-pyridin-2-yl-ethyl)-carbamoyl]-ethylamino}-4-oxo-4H-benzo[d][1,3]oxazin-6-yl)-benzamide] | > 12.5 µM | 2.8 µM | 84.4% |
| Cc1c(NC(=O)OC(C)(C)C)ccc2nc(N3C[C@H](OCc4ccccc4)C[C@H]3C(=O)N(C)CCc3cccnc3)oc(=O)c12 [Compound No.115, (2-{4R-Benzyloxy-2S-[methyl-(2-pyridin-3-yl-ethyl)-carbamoyl]-pyrrolidin-1-yl}-5-methyl-4-oxo-4H-benzo[d][1,3]oxazin-6-yl)-carbamic acid tert-butyl ester] | 6.1 µM | > 20 µM | 71.4% |
| Cc1c(NC(=O)OC(C)(C)C)ccc2nc(N[C@H](C(=O)N(C)CCc3ccncc3)C(C)C)oc(=O)c12 [Compound No.53, (5-Methyl-2-{2-methyl-1S-[methyl-(2-pyridin-4-yl-ethyl)-carbamoyl]-propylamino}-4-oxo-4H-benzo[d][1,3]oxazin-6-yl)-carbamic acid tert-butyl ester] | 6.1 µM | 2.7 µM | 106.0% |

These reach a lower IC50 (HSV-1 protease). Values come first.

| EC90 (HSV-1) | IC50 (HSV-1 protease) | Compound | Cell viability (% of control) (Vero cells) |
| --- | --- | --- | --- |
| 23.8 µM | 0.7 µM | Cc1c(NC(=O)OC(C)(C)C)ccc2nc(N[C@@H](Cc3ccccc3)C(=O)NCc3cccnc3)oc(=O)c12 [Compound No.30, (5-Methyl-4-oxo-2-{2-phenyl-1S-[(pyridin-3-ylmethyl)-carbamoyl]-ethylamino}-4H-benzo[d][1,3]oxazin-6-yl)-carbamic acid tert-butyl ester] | 98.6% |
| 6.1 µM | 1.4 µM | COC(=O)c1ccc(C(=O)Nc2ccc3nc(NC(C)(C)C(=O)N(C)CCc4ccccn4)oc(=O)c3c2C)cc1 [Compound No.150, N-(5-Methyl-2-{1-methyl-1-[methyl-(2-pyridin-2-yl-ethyl)-carbamoyl]-ethylamino}-4-oxo-4H-benzo[d][1,3]oxazin-6-yl)-tetraphthalic acid methyl ester] | 81.5% |
| 9.3 µM | 0.6 µM | Cc1c(NC(=O)OC(C)(C)C)ccc2nc(NC(C)(C)C(=O)N(C)CCc3ccncc3)oc(=O)c12 [Compound No.51, (5-Methyl-2-{1-methyl-1-[methyl-(2-pyridin-4-yl-ethyl)-carbamoyl]-ethylamino}-4-oxo-4H-benzo[d][1,3]oxazin-6-yl)-carbamic acid tert-butyl ester] | 106.0% |
| > 25 µM | 1.6 µM | Cc1c(NC(=O)OC(C)(C)C)ccc2nc(NC(C)(C)C(=O)NCc3ccncc3)oc(=O)c12 [Compound No.34, (5-Methyl-2-{1-methyl-1-[(pyridin-4-ylmethyl)-carbamoyl]-ethylamino}-4-oxo-4H-benzo[d][1,3]oxazin-6-yl)-carbamic acid tert-butyl ester] | 102.0% |
| 5.8 µM | 1.2 µM | CCCc1ccc(C(=O)Nc2ccc3nc(NC(C)(C)C(=O)N(C)CCc4ccccn4)oc(=O)c3c2C)cc1 [Compound No.166, N-(5-Methyl-2-{1-methyl-1-[methyl-(2-pyridin-2-yl-ethyl)-carbamoyl]-ethylamino}-4-oxo-4H-benzo[d][1,3]oxazin-6-yl)-4-propyl-benzamide] | 15.9% |
| 9.1 µM | 0.7 µM | Cc1c(NC(=O)OC(C)(C)C)ccc2nc(N[C@@H](C)C(=O)N(C)CCc3ccccn3)oc(=O)c12 [Compound No.43, (5-Methyl-2-{1S-[methyl-(2-pyridin-2-yl-ethyl)-carbamoyl]-ethylamino}-4-oxo-4H-benzo[d][1,3]oxazin-6-yl)-carbamic acid tert-butyl ester] | 104.0% |
| ≥ 12.5 µM | 2.1 µM | Cc1c(NC(=O)C(C)C)ccc2nc(NC(C)(C)C(=O)N(C)CCc3ccccn3)oc(=O)c12 [Compound No.195, 2-(6-Isobutyrylamino-5-methyl-4-oxo-4H-benzo[d][1,3]oxazin-2-ylamino)-2,N-dimethyl-N-(2-pyridin-2-yl-ethyl)-propionamide] | 99.7% |
| > 25 µM | 1.6 µM | Cc1c(NC(=O)OC(C)(C)C)ccc2nc(NC(C)(C)C(=O)NCCc3ccccn3)oc(=O)c12 [Compound No.35, {5-Methyl-2-[1-methyl-1-(2-pyridin-2-ylethylcarbamoyl)-ethylamino]-4-oxo-4H-benzo[d][1,3]oxazin-6-yl}-carbamic acid tert-butyl ester] | 110.0% |
| > 12.5 µM | 1.1 µM | Cc1c(NC(=O)OC(C)(C)C)ccc2nc(N3CCC[C@H]3C(=O)NCc3ccccn3)oc(=O)c12 [Compound No.86, (5-Methyl-4-oxo-2-{2S-[(pyridin-2-ylmethyl)-carbamoyl]-pyrrolidin-1-yl}-4H-benzo[d][1,3]oxazin-6-yl)-carbamic acid tert-butyl ester] | 94.6% |
